In patent publication US11542262B2, “Phosphatidylinositol 3-kinase inhibitors” (NANJING ZHENGXIANG PHARMACEUTICALS CO., LTD., priority 2019, dated 2023):
In brackets after ≈: the same amount, converted by molar mass.

Tests used:
[1] = dogs, reported by Pemberton et al, J Med Chem 2018; cited from earlier work
[2] = Kinetic solubility test in PBS pH7.4; type: physicochemical; settings: aqueous buffer, kinetic from dmso stock; PBS pH 7.4, 25° C., 2 hours
Description: 15 μL of stock solution (10 mM) was placed in order into their proper 96-well rack. 485 μL of PBS pH7.4 was added into each vial of the cap-less Solubility Sample plate. The assay was performed in singlet. Add one stir stick to each vial and seal using a molded PTFE/Silicone plug. […] After completion of the 2 hours, the samples from the Solubility Sample plate were transferred into the filter plate. all the samples were filtered using the Vacuum Manifold. Aliquot of 5 μL was taken from the filtrate followed by addition of 495 μL of a mixture of H2O and acetonitrile containing internal standard (1:1). A certain proportion of ultrapure water was used to dilute the diluent according to the peak shape. The dilution factor was changed according to the solubility values and the LC-MS signal response.
Preparation of 3 μM standards (STD): From the 10 mM DMSO STD plate, 6 μL was transferred into the remaining empty plate, and then 194 μL of DMSO was added to that plate to have a STD concentration of 300 μM. From the 300 μM DMSO STD plate, 5 μL was transferred into the remaining empty plate, and then 495 μL of a mixture of H2O and acetonitrile containing internal standard (1:1) was added to that plate to have a final STD concentration of 3 μM. A certain proportion of ultrapure water was used to dilute the diluent according to the peak shape. The concentrations of the standard samples were changed according to the LC-MS signal response.
Procedure for sample analysis: The plate was placed into the well plate autosampler. The samples were evaluated by LC-MS/MS analysis.
Data analysis: All calculations were carried out using Microsoft Excel.
The filtrate was analyzed and quantified against a standard of known concentration using LC coupled with mass spectral peak identification and quantitation. Solubility values of the test compound and control compound were calculated as follows:
[formula] • Any value of the compounds that was not within the specified limits was rejected and the experiment was repeated.

PI3Kδ = PI3Kδ (Homo sapiens, UniProt O00329); test: ADP-Glo luminescent assay, enzymatic activity of PI3K delta; type: biochemical; settings: ATP 25 μM; read-out: PI3K delta (nM) inhibitory activity (IC50)
Chain of PI3Kδ (O00329 whole entry, species assumed, canonical isoform): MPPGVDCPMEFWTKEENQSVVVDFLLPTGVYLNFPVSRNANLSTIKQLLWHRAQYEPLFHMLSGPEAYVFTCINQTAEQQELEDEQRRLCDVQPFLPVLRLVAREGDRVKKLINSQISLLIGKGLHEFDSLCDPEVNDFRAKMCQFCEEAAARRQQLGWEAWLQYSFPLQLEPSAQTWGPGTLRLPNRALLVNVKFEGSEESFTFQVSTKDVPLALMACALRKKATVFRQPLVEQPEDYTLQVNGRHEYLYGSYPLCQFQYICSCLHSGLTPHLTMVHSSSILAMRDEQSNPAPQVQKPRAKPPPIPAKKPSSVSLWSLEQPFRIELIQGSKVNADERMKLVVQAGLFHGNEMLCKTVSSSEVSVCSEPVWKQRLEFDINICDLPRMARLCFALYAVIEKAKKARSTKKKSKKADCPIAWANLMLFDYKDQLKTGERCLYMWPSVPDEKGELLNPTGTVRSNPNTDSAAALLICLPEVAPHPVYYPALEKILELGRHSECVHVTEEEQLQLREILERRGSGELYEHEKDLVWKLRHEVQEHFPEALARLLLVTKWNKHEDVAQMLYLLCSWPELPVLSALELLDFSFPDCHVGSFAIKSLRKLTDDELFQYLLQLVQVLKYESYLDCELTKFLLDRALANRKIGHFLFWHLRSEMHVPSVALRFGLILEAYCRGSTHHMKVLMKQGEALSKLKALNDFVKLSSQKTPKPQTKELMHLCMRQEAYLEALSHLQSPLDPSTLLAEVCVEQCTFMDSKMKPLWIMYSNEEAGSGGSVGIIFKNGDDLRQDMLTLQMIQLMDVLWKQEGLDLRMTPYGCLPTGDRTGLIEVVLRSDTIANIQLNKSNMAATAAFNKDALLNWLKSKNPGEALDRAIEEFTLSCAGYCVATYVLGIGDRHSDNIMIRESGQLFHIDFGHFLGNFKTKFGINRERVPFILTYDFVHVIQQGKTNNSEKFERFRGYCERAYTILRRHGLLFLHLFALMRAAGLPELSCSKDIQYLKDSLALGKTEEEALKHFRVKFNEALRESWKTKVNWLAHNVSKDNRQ
Chain of PI3Kδ (P27986 whole entry partner, species assumed, canonical isoform): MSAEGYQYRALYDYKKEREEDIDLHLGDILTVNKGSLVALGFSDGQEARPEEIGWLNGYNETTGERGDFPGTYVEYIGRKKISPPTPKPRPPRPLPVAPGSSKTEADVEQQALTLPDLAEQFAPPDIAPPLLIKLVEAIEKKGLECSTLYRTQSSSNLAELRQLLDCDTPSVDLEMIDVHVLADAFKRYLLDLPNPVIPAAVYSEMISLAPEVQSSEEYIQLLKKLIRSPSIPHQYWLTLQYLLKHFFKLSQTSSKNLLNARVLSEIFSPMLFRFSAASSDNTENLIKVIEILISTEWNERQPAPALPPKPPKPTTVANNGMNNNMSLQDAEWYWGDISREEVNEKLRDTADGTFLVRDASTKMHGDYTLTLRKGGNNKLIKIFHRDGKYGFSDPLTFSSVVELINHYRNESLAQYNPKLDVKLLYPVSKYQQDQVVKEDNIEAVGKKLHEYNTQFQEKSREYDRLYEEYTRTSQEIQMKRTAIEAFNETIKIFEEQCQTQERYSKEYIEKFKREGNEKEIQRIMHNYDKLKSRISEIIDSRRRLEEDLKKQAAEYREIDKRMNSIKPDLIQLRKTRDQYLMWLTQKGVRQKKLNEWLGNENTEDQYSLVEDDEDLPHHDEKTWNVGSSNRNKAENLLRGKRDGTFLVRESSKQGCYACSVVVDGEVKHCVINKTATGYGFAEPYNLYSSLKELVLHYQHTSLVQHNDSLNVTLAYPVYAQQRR
Description: Enzymatic activity of PI3K isoforms: Enzymatic activity of the class I PI3K isoforms in the presence of the compounds of Table 1 was measured using ADP-Glo luminescent assay against PI3Kα, PI3Kβ, PI3Kδ and PI3Kγ with ATP concentration at 25 μM. […] The compounds would be tested from 1 or 10 μM, 3-fold dilution for 10 doses, in duplicate.
(§1) Compound preparation: Dilute a compound to 100× of the final desired highest inhibitor concentration in reaction by 100% DMSO. Transfer 100 μl of this compound dilution to a well in a 96-well plate and serially dilute it with DMSO for a total of 10 concentrations.
(§2) Kinase reaction: Prepare a solution of PI3K in 1× kinase buffer at 2-fold the final concentration of each reagent in the assay. Control wells contain 1× kinase buffer without enzyme. Prepare substrate solution of PIP2 substrate and ATP in 1× kinase reaction buffer at 2-fold of the final concentration. Add concentration substrate solution to each well to the final concentration. Cover the assay plate, shake to mix, and incubate at room temperature for 1 hour. Add 5 μl of ADP-Glo reagent to each well to stop the reaction. Mix briefly with a quick spin, shake slowly on the shaker for 120 min. Add 10 ul Kinase Detection Reagent to each well, shake 1 min, equilibrate for 30 min before reading on a luminescence plate reader.
(§3) Data Analysis: Convert RLU values to percent inhibition values as Percent inhibition=(max−sample RLU)/(max−min)*100. “min”—no enzyme control; “max”—DMSO control. Fit the data in XLFit excel add-in version 5.4.0.8 to obtain IC50 values. Y=Bottom+(Top−Bottom)/(1+(IC50/X)^HillSlope).

PI3K delta = biological target: T1, PI3K delta (Homo sapiens, UniProt O00329); test: Raji cell assay: phosphorylation of AKT in anti-IgM stimulated Raji cells (AlphaLISA); type: cell-based; settings: pAKT, read-out: PI3K delta Raji cell (nM) cellular activity (IC50)
T1 construct: endogenous in cells; host or cells: Raji
T1 sequence (O00329 whole entry): as the sequence (O00329 whole entry, species assumed, canonical isoform) above
T1 sequence (P27986 whole entry partner): as the sequence (P27986 whole entry partner, species assumed, canonical isoform) above
Description: This study aims to determine the inhibitory effect of compounds on PI3K gamma and PI3K delta in corresponding cell based assays. PI3K gamma activity was reflected by phosphorylation of AKT in C5a stimulated RAW264.7 cells, and PI3K delta activity was reflected by phosphorylation of AKT in anti-IgM stimulated Raji cells. Phosphorylation of AKT in cells was determined using AlphaLISA technology from PerkinElmer.
Raji cell assay: Prepare Passage 11 Raji cell and add 6 μL of 60K cells per well in 384-well plate. Centrifuge at 500 RPM for 30 s and incubate for 2 hours at 37° C., 5% CO2. Add 30 nL compound by Echo and incubate for 30 min at 37° C. Add 2 μL of IgM (4×, 12 μg/mL) per well, centrifuge at 500 RPM for 30 s and incubate for 10 min at 37° C. Add 2 μL of 5× lysis buffer by Multidrop. Shake 10 min on a plate shaker. Add 5 μL acceptor mix provided in the kit. Centrifuge at 1000 RPM for 1 min. Add 5 μL donor mix provided in the kit. Centrifuge at 1000 RPM for 1 min. Then incubate for 2 hours at 25° C., keep the plate in dark. Read AlphaLISA signal on Envision.
Data analysis: Fit the cpd IC50 from non-linear regression equation. Y=Bottom+(Top−Bottom)/(1+10^((Log IC50−X)*Hill Slope)) X: Log of cpd concentration Y: Inhibition

PI3Kα = PI3Kα (Homo sapiens, UniProt P42336); test: ADP-Glo luminescent assay, enzymatic activity of PI3K alpha; type: biochemical; settings: ATP 25 μM; read-out: PI3K alpha (nM) inhibitory activity (IC50)
Description: (§4) Enzymatic activity of PI3K isoforms: Enzymatic activity of the class I PI3K isoforms in the presence of the compounds of Table 1 was measured using ADP-Glo luminescent assay against PI3Kα, PI3Kβ, PI3Kδ and PI3Kγ with ATP concentration at 25 μM. IPI-549 was used as the reference compound. The compounds would be tested from 1 or 10 μM, 3-fold dilution for 10 doses, in duplicate.
as §1, §2, §3

PI3Kγ = PI3Kγ (Homo sapiens, UniProt P48736); test: ADP-Glo luminescent assay, enzymatic activity of PI3K gamma; type: biochemical; settings: ATP 25 μM; read-out: PI3K gamma (nM) inhibitory activity (IC50)
PI3Kβ = PI3Kβ (Homo sapiens, UniProt P42338); test: ADP-Glo luminescent assay, enzymatic activity of PI3K beta; type: biochemical; settings: ATP 25 μM; read-out: PI3K beta (nM) inhibitory activity (IC50)
Chain of PI3Kβ (P42338 whole entry, species assumed): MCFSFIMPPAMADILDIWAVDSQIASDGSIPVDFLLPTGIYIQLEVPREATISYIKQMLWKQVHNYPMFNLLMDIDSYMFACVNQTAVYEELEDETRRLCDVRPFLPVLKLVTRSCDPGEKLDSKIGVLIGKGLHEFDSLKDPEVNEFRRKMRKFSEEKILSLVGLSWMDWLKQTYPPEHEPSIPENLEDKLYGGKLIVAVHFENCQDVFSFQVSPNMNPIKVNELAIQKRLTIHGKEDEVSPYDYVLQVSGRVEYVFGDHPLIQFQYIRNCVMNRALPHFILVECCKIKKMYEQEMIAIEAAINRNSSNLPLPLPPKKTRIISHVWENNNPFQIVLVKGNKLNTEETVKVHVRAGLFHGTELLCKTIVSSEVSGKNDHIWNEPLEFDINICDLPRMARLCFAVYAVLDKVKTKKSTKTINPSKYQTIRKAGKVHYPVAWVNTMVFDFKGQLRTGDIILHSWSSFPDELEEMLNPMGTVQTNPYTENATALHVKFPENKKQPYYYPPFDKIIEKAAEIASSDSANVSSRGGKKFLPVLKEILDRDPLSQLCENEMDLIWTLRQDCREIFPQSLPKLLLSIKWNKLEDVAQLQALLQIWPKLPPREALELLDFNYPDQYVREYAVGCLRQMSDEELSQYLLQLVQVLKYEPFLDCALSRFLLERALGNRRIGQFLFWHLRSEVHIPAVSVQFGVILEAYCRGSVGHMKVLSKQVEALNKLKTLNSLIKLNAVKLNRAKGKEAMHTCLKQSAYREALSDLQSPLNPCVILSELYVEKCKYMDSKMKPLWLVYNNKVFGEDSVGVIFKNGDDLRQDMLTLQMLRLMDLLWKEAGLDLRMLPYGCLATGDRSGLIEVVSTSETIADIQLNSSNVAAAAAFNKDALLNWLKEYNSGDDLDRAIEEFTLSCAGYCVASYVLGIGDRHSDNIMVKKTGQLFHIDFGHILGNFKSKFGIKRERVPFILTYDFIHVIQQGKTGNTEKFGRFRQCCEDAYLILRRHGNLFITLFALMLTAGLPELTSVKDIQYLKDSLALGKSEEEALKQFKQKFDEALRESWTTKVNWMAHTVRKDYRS
Chain of PI3Kβ (P27986 whole entry partner, species assumed): as the sequence (P27986 whole entry partner, species assumed, canonical isoform) above
Description: as §4, §1, §2, §3

PI3K gamma = biological target: T2, PI3K gamma (Mus musculus, UniProt Q9JHG7); test: Raw264.7 cell assay: phosphorylation of AKT in C5a stimulated RAW264.7 cells (AlphaLISA); type: cell-based; settings: pAKT, read-out: PI3K gamma Raw264.7 cell (nM) cellular activity (IC50)
T2 construct: endogenous in cells; host or cells: RAW264.7
T2 sequence (Q9JHG7 whole entry): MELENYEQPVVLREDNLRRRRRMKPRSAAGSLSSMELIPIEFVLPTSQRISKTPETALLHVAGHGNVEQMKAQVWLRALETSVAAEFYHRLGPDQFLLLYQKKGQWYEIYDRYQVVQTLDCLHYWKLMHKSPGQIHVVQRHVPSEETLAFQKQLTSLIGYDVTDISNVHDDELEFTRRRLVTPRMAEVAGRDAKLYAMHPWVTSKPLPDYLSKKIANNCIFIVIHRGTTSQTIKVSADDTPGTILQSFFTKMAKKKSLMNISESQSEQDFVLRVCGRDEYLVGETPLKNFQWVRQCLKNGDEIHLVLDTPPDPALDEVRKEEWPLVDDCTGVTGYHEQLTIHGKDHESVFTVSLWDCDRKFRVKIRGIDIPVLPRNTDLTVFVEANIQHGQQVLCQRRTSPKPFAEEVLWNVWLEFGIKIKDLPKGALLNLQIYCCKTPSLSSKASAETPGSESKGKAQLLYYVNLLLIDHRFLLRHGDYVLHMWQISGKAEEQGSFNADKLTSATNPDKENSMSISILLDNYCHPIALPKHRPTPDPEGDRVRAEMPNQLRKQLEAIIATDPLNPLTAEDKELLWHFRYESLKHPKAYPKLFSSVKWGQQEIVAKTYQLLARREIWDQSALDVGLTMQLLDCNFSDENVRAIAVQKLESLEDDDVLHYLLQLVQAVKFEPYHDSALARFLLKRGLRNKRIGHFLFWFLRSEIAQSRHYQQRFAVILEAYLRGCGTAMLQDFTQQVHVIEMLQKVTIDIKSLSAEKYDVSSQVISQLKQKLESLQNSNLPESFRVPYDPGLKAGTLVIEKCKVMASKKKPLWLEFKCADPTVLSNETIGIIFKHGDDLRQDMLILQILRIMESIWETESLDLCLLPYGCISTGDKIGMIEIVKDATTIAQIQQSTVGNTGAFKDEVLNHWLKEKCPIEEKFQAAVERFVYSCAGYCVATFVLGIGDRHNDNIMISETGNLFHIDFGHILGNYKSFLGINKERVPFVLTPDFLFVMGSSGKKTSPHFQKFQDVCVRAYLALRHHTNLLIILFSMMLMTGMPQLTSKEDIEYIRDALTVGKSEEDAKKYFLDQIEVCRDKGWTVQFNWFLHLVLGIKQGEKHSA
T2 sequence (Q5SW28 whole entry partner): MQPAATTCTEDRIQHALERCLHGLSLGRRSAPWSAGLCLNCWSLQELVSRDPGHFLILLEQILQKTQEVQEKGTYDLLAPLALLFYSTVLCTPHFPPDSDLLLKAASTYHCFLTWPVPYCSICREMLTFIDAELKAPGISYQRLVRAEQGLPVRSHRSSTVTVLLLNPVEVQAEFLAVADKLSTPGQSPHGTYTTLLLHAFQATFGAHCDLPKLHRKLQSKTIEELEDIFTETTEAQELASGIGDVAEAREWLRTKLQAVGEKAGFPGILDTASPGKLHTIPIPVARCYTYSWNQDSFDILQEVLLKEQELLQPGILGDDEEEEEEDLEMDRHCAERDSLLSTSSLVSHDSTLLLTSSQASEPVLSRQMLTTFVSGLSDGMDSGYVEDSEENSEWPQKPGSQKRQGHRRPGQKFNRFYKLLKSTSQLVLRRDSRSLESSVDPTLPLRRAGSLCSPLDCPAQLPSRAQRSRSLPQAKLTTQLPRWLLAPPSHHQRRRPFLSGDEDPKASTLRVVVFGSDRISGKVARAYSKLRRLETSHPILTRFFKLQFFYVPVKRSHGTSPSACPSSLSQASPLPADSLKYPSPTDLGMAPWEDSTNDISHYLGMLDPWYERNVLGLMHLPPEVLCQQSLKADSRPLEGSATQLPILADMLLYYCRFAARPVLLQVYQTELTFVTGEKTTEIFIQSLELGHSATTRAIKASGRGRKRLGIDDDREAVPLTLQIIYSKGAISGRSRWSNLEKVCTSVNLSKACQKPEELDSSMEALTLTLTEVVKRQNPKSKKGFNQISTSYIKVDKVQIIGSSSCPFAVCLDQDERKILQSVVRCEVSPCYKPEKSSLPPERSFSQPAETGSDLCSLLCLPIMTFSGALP
Method in brief: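 Passage-15 RAW264.7 cells were plated and rested 2 h at 37 °C, then given compound for 30 min at 37 °C before C5a stimulation. Lysates went to phospho-AKT AlphaLISA with a 2 h dark incubation at 25 °C. IC50 came from a four-parameter logistic fit of inhibition against log concentration.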

Row | Compound | Vssobs [1] | solubility at 2 h [2] | IC50 (PI3Kδ) | IC50 (PI3K delta) | IC50 (PI3Kα) | IC50 (PI3Kγ) | IC50 (PI3Kβ) | IC50 (PI3K gamma)
1 | CC(=O)Nc1nc(C)c(-c2cc3c(c(NS(C)(=O)=O)c2)C(=O)N([C@@H](C)C2CC2)C3)s1 [AZ-17] | 0.7 L/kg | – | – | – | – | – | – | –
2 | CCS(=O)(=O)Nc1nc(-c2sc(NC(C)=O)nc2C)cc2c1C(=O)N([C@@H](C)C1CC1)C2 [Compound 23, (S)-N-(5-(2-(1-cyclopropylethyl)-4-(ethylsulfonamido)-3-oxo-2,3-dihydro-1H-pyrrolo[3,4-c]pyridin-6-yl)-4-methylthiazol-2-yl)acetamide] | – | 202 µM (≈ 93.6 µg/mL) | 1210 nM | 1510 nM | 3330 nM | 1 nM | > 10000 nM | 2 nM
